How the values were obtained:
Format in all cases: cell-based
[1] = tested on: Mino cells; assay: Effect of the compound on the proliferation of Mino cells (MTS); details: Homo sapiens, 72 h, 3 days, read-out: Inhibitory activity (IC50)
Summary of the method: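 Mino cells, 8000/well, treated 3 days at 37 °C/5% CO2 with 5-fold compound dilutions from 10 mM stock (0.2% DMSO final). MTS added for 3-4 h; OD490 minus OD690 read, inhibition relative to DMSO and blank, IC50 fitted. Three repeats, each in triplicate.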

[2] = tested on: prostate cancer cells DU145; assay: Proliferation of other tumor cells, DU145 (WST-8); details: Homo sapiens, DU-145, 96 h, 4 days, read-out: Inhibitory activity on proliferation, DU145 (IC50)
Description: (§1) The human triple negative breast cancer cells MDA-MB-468 and MDA-MB-231 used in this experiment were purchased from the Shanghai Cell Bank, in which L-15 medium added with 10% fetal bovine serum (FBS) and 1% double antibody was used. At 37° C., MDA-MB-468 and MDA-MB-231 cells were cultured in an incubator without CO2. Colorectal cancer cells HCT-116 were cultured in McCOY's 5A medium with 1% double antibody and 10% fetal bovine serum (FBS); prostate cancer cells DU145 were cultured in MEM medium with 1% double antibody and 10% fetal bovine serum (FBS); prostate cancer cells PC-3 were cultured in F-12 K medium with 1% double antibody and 10% fetal bovine serum (FBS); grew at 37° C., 5% CO2.
(§2) In the cell activity test experiment, 90 μL cell suspension with appropriate concentration was added to a 96-well cell culture plate according to the cell growth, each compound to be tested was gradient diluted with the corresponding medium, 10 μL diluted compound was added to 90 μL cells, and then incubated at 37° C. for 4 days. Cell proliferation was analyzed by WST-8, which could be reduced by lactate dehydrogenase in the cells to a yellow formazan. 10 μL of WST-8 reagent (DOJINDO) was added to the cells and reacted for more than 1 hour at 37° C., DMSO-treated cells were used as […]. The absorption value of 490 nm was read by enzyme-labeled plate, and the absorption value of 690 nm was taken as the background value, and OD490-OD690 was taken as the final original data, and the data was processed by GraphPad Prism6 software. The formula for calculating the inhibition rate of the compound was: inhibition rate=(ODDMSO−ODcompound)/(ODDMSO−Oblank)×100%. The compound's proliferation inhibition IC50 was fitted by Graph Pad Prism 5.0. The experiment was repeated three times, and three parallel experiments were used to calculate the average and standard deviation each time. The cell viability test results were shown in Table 4: A means cell viability IC50<1 μM, B means cell viability 1 μM≤IC50≤20 μM, C means cell viability IC50>20 μM, NT means not tested.

[3] = tested on: triple negative breast cancer cells MDA-MB-231; assay: Proliferation of other tumor cells, MDA-MB-231 (WST-8); details: Homo sapiens, 96 h, MDA-MB-231 cells, 4 days, read-out: Inhibitory activity on proliferation, MDA-MB-231 (IC50)
Description: as §1, §2

[4] = tested on: IL-2; assay: IL-2 expression change in anti-human CD3 stimulated PBMC (ELISA); details: compound 10 nM, anti-human CD3 10 ug/ml, 24 hours
Description: (§3) All operations of this experiment were carried out according to the conventional experimental process of this kind of experiment at present. Peripheral blood from healthy volunteers was collected by routine standard procedure and cultured in 1640 medium (+10% FBS) to obtain PBMC. After recovery, PBMC was centrifuged and resuspended in serum-free medium. After counting, adjusted the density to be 6.25×10^5/ml; then inoculated 160 ul to a 96-well plate, 2 holes each, 1×10^5/well; 20 ul 10× compound and DMSO were added, and incubated for 1 hour in an incubator; then 20 ul 10× anti-human CD3 was added resulting the final concentration of 10 ug/ml and incubated in an incubator for 24 hours. Centrifuged the cell plate at 1500 rpm and aspirated 50 ul supernatant according to the ELISA operation. After operating according to the kit, a microplate reader was used to read at 450 nm. The concentration of compound was 10 nM, and DMSO was added as control group. Materials used in this experiment: 96 well plate (Corning, #3599), ELISA kit (Thermo), LPS (Sigma, USA).

[5] = tested on: IFNγ; assay: IFNγ expression change in anti-human CD3 stimulated PBMC (ELISA); details: compound 10 nM, anti-human CD3 10 ug/ml, 24 hours
Description: as §3, with “USA). It was found from the test results of the following table that the compounds of the examples of the present invention could be used to regulate the expression of IFNγ.” for “USA).”

IC50 [2]: > 20 µM | IC50 [3]: > 20 µM
Compound: Nc1cccc2c1CN(C1CCC(=O)NC1=O)C2=O (centres unmarked) [Lenalidomide, lenalidomide, reference compound]
IC50 [1]: > 20 µM | Increase multiple of IL-2 Expression [4]: >3 | Increase multiple of IFNγ expression [5]: >1.5

Source: US20220041578A1, “ISOINDOLINE COMPOUND, AND PREPARATION METHOD, PHARMACEUTICAL COMPOSITION, AND APPLICATION OF ISOINDOLINE COMPOUND” (Shanghai Institute of Meteria Medica, Chinese Academy of …, priority 2018, published 2022)
